Earlier results on one compound are cited in US9555015B2, “Antimicrobial compositions and methods for their use” (Dermcare-Vet Pty Ltd, priority 2004, dated 2017).

Structures are written as SMILES.

For data set [1] the following is noted: especially in concentrations as high as 2%, particularly when the tympanic membrane has been ruptured.
The conditions of data set [2]: 0.02% chlorhexidine compositions, bladder instillation.
The conditions of data set [3]: 0.2% chlorhexidine, external ear, ruptured tympanic membranes.

In the case of `[H]/N=C(\N/C(=N/[H])NCCCCCCNC(=N)NC(=N)Nc1ccc(Cl)cc1)Nc1ccc(Cl)cc1` [chlorhexidine], the ototoxicity entry in data set [1] is listed as “ototoxic”. Further, the bladder adverse effect result in data set [2] is reported as “chemical cystitis resulting in haematuria”. Further, the ototoxic effects entry in data set [3] is on record as “no ototoxic effects”.
